The record followed here is patent US20120108563A1, “Methods Of Treating Liposarcoma” (Infinity Pharmaceuticals, Inc., priority 2009, published 2012).

For the test, the system named is dedifferentiated metastatic liposarcoma. In words: Administration of compound 2 to a human subject with dedifferentiated metastatic liposarcoma (imaging assessment, RECIST). The format is in vivo. The following applies: one human patient. The procedure:
A human subject with dedifferentiated metastatic liposarcoma was treated with compound 2 at 400 mg/m^2. The patient received two doses of compound 2 at 400 mg/m^2 during the first cycle of therapy. The patient received two doses at 300 mg/m^2 during the second cycle of therapy. The patient then received 225 mg/m^2 for seven cycles of therapy. […] The patient received a total of 9 cycles of compound 2 with maximal tumor shrinkage occurring after 7 cycles (54% tumor shrinkage).

Setting [1] is: after first cycle of therapy (two doses at 400 mg/m^2).

Take `C=CCNc1c(O)cc2c(O)c1C[C@@H](C)C[C@H](OC)[C@H](O)[C@@H](C)/C=C(\C)[C@H](OC(N)=O)[C@@H](OC)/C=C\C=C(/C)C(=O)N2.Cl` [compound 2, Hydrochloride Salt of the Hydroquinone of 17-AAG]: the maximal tumor shrinkage (after 7 cycles, of 9 cycles in total) amounted to 54%. Under setting [1], the “imaging assessment of response (RECIST)” value is on record as “stable disease” and the “tumor shrinkage using Response Evaluation Criteria in Solid Tumors (RECIST)” value stood at 28%. Further, where the note is “by the end of cycle 3”, the response achieved result is reported as “partial response”. The compound further came in with a tumor shrinkage (by the end of cycle 3 (cycle 1 at 400 mg/m^2, cycle 2 at 300 mg/m^2, then 225 mg/m^2)) of 35%.
